One data set deals with NCTC clone 929 cell line. Put plainly: Antioxidant activity, cell viability (MTT) after hydrogen peroxide stress. Type of data set: cell-based. As to conditions: 0.56 mg/ml; for Absorbance Mean: 570 nm.
Experiment in data set [1]: as above
The class given is cell-based. As to conditions: mouse, NCTC clone 929 cells, Without H2O2, read-out: Cellular viability (%).

Another data set concerns citrated ovine plasma. Kind of data set: Coagulant activity in vitro (coagulation time, coagulometer). Type of data set: biochemical. How it is done:
The material used is described as follows: • The 6th international standard for unfractionated heparin (WHO 07; 328) • Activated cephaloplastin reagent Dade® Actin®—Siemens • Calcium chloride—Siemens®. • Thermo Scientific coagulometer • Citrated ovine plasma 8.7%. • Aqueous extract of lyophilized Cleome droserifolia The operating protocol is described as follows: The lyophilized extract was dissolved in ultrapure water to obtain a stock concentration of 2 mg/ml. Dilution was carried out to obtain a concentration of 0.6 mg/ml. In a first experiment, 100 μl of each of the following solutions was added to the cuvettes of the coagulometer (n=2): • Lyophilisate solution concentrated at 0.6 mg/ml, • Heparin solution at a concentration of 0.6 IU/ml • Physiological solution for the control group, • Then, 100 μl of sheep plasma was added to all the wells. • After 2 minutes, 100 μl of reactant activated with Cephalosplatin Cade® Actin was added. • After 5 minutes of incubation, 100 μl of calcium chloride solution were added and the coagulation times were recorded.

The results in this text go back to patent publication US12343368B2, “Cleome droserifolia extract and therapeutic or cosmetic use thereof” (ANPJ HEALTHCARE, priority 2019, dated 2025).

As for `O=C1O[C@H]([C@@H](O)CO)C(O)=C1O` [ascorbic acid], the viability (commonly a per cent measure of how many cells are alive, often set against a control) at 25 µM in the data set with NCTC clone 929 cell line (NCTC clone 929, With H2O2 (25 μM), read-out: Cellular viability (%)) stood at 74.4%. Moreover, the “Absorbance Mean” value in the data set with NCTC clone 929 cell line (With H2O2 (25 μM)) is listed as 0.3564; in the data set on NCTC clone 929 cell line (Without H2O2) it was 0.3719. Besides, the viability at 24 h, 0.56 mg/ml in data set [1] was found to be 77.6%.
Regarding Heparin, the coagulation time in the data set on citrated ovine plasma (heparin) and in the data set with citrated ovine plasma (heparin 0.6 IU/ml) was 54.3 s in each case.
